Measurements taken from patent publication US20240025924A1, “HETEROCYCLE SUBSTITUTED KETONE DERIVATIVE, AND COMPOSITION AND MEDICINAL USE THEREOF” (SHANGHAI HAIYAN PHARMACEUTICAL TECHNOLOGY CO., LTD., priority 2021, published 2024).

Experiments:
hERG potassium channel = molecular target: T1, hERG potassium channel (Homo sapiens, UniProt Q12809); experiment: Inhibition of hERG potassium channel current, manual patch clamp in CHO cells stably expressing hERG; assay type: cell-based; settings: whole-cell patch clamp, room temperature
T1 construct: expressed in transfected cells; host or cells: CHO (Chinese hamster ovary) cells stably expressing hERG
Description: The electrophysiological manual patch clamp method was used to test the effect of the compounds on the current of hERG potassium channel (human Ether-a-go-go Related Gene potassium channel).
CHO cells stably expressing hERG were cultured in a cell Petri dish having a diameter of 35 mm, placed in an incubator at 37° C. and with 5% CO2, and passaged every 48 hours at a ratio of 1:5. The culture medium formula was: 90% F12 (Invitrogen), 10% fetal bovine serum (Gibco), 100 μg/mL G418 (Invitrogen), and 100 μg/mL Hygromycin B (Invitrogen). On the day of the test, the cell culture medium was sucked away, and the cells were washed with extracellular fluid once. Then 0.25% Trypsin-EDTA (Invitrogen) solution was added, and the cells was digested at room temperature for 3-5 min. The digestive fluid was sucked away, and the cells were resuspended with extracellular fluid, and transferred to the experimental dish for electrophysiological recording.
On the day of test, the compounds were prepared using DMSO into mother solution with concentration of 20 mM, and then serial dilution with DMSO was performed three times, i.e., 10 μL of the solution was added to 20 μL of DMSO, then 10 μL of the serial diluted solution of the compounds in DMSO was added to 4990 μL of extracellular fluid, and 500 times of dilution was performed to obtain the final concentration to be tested.
The hERG potassium channel currents of CHO (Chinese hamster ovary) cells stably expressing hERG potassium channels were recorded using whole-cell patch clamp technique at room temperature. The glass microelectrodes were made from glass electrode blanks (BF150-86-10, Sutter) by pulling through a puller, and the tip resistance was about 2-5 MΩ after filling the electrode with the inner liquid. The glass microelectrodes could be connected to a patch clamp amplifier by inserting them into the amplifier probe. Clamp voltage and data recording were controlled and recorded by a computer using software pClamp 10 with a sampling frequency of 10 kHz and a filtering frequency of 2 kHz. After obtaining a whole-cell recording, the cell was clamped at −80 mV, and the step voltage inducing hERG potassium current (IhERG) was given a depolarizing voltage from −80 mV to +20 mV for 2 s, and repolarized to −50 mV for 1 s, then returning to −80 mV. This voltage stimulus was given every 10 s. After it is determined that the potassium hERG current was stable (for 1 min), the dosing process was initiated. The compounds were administered for at least 1 min at each tested concentration, and at least 2 cells (n≥2) were tested at each concentration.
Data analysis and processing were conducted using softwares pClamp 10, GraphPad Prism 5, and Excel. The degree of inhibitory activity of different compound concentrations on hERG potassium current (peak value of hERG tail current induced at −50 mV) was calculated using the following formula: Inhibition %=[1−(I/Io)]×100%. Among them, Inhibition % represents the percentage inhibition of the compound on hERG potassium current, and I and Io represent the amplitude of hERG potassium current after and before dosing, respectively.
IC50 of the compounds was calculated using software GraphPad Prism 5 by fitting the following equation: Y=Bottom+(Top−Bottom)/(1+10^(Log IC50−X)*HillSlope). Among them, X is the Log value of the detection concentration of test material, Y is the inhibition percentage at the corresponding concentration, and Bottom and Top are the minimum and maximum inhibition percentages, respectively.

SHP-2 enzyme = molecular target: T2, SHP-2 enzyme (Homo sapiens, UniProt Q06124); experiment: Phosphatase activity assay (Homogeneous Full Length SHP-2 Assay Kit, DiFMUP substrate); assay type: biochemical; settings: full length SHP-2 activated with 0.5 μM SHP-2 activating Peptide; 1 hour co-incubation; DiFMUP 50 μM, 30 min
T2 construct: Homogeneous Full Length SHP-2 Assay Kit (BPS Bioscience #79330); purchased BPS Bioscience 79330
T2 sequence (Q06124 1-593): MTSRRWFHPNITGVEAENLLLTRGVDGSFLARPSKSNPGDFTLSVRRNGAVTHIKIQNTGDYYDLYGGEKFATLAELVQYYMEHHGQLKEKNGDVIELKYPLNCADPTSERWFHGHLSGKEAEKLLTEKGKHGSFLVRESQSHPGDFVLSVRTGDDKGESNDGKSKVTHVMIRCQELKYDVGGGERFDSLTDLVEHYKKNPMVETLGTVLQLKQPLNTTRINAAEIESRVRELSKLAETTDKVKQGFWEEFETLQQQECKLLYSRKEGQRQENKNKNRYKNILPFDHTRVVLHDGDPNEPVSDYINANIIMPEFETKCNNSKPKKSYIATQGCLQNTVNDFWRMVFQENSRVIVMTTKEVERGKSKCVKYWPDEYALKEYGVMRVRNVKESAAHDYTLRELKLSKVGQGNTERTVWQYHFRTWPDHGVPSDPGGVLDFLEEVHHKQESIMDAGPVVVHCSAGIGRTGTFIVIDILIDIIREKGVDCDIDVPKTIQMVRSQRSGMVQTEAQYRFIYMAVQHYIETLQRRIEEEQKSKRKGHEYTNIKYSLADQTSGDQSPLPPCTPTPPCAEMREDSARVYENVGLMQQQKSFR
Description: IC50 values were assayed using Homogeneous Full Length SHP-2 Assay Kit (BPS Bioscience #79330), which uses 6,8-difluoro-4-methylumbelliferone phosphate (DiFMUP) as the reaction substrate. SHP2 enzyme solution (diluted to 0.04 ng/μL with 1*buffer) was mixed with 0.5 μM SHP-2 activating Peptide in a 1*buffer solution containing 2.5 mM DTT to activate PTP. At the same time, DMSO (0.1% (V/V)) or the compounds (concentration: 0.5 nM to 1 μM) were added, mixed and co-incubated for 1 hour. DiFMUP (50 μM, total reaction system volume of 20 μL) was added, and the reaction was started. After 30 min of incubation, the fluorescence intensity of the reaction system (excitation wavelength: 350 nm, emission wavelength: 460 nm) was measured by Tecan Infinite M1000.

MV-4-11 cell = experiment: Cell proliferation assay (Cell Titer-Glo); assay type: cell-based; settings: inhibition of MV-4-11 cell proliferation, Cell Titer-Glo on day 4
Description: MV 411 cells (20000 cells/well) were inoculated and cultured in 96 (Corning #3916) well plates, and the medium was 80 μL/well (IMDM with 10% fetal bovine serum (FBS), Gibco #10099-141C). After 24 hours of incubation, 20 μL of the compounds of the present invention configured to different concentrations (DMSO final concentration of 0.1% (V/V)) were added. On day 4, 60 μL of Cell Titer-Glo (Promega #G7558) was added to each well and mixed at 80 rpm, 25° C., 15 min, and the fluorescence values were detected by Victor X5 (PE).

[1] = system: human esophageal squamous carcinoma cell line KYSE-520; experiment: KYSE-520 subcutaneous transplantation tumor model; assay type: in vivo; settings: KYSE-520 subcutaneous tumor, female Balb/C nude mice, 10 mg/kg, PO, QD
Description: The human esophageal squamous carcinoma cell line KYSE-520 was cultured in RPMI 1640 containing 10% fetal bovine serum placed in a 37° C., 5% CO2 sterile incubator. The cells were passaged 2-3 times per week, digested with 0.25% trypsin-EDTA. After terminating the digestion with the above complete medium, the system was centrifugated at 1000 rpm for 5 min. The supernatant was discarded, and the cells were resuspended and passaged at a ratio of 1:3-1:5. Cells in logarithmic phase were collected, resuspended in serum-free RPMI 1640, counted and adjusted to the appropriate density.
KYSE-520 cells (3×10^6 cells/mouse) were inoculated into the right ventral dorsum of approximately 6- to 8-week-old female Balb/C nude mice. Then the tumors grew to an average volume of about 200 mm^3, the tumors were randomly grouped according to the tumor volume and body weight (n=8-10). Administration was started on the day of grouping and was performed once daily, defining the day of grouping as day 0. Tumor diameters were measured twice a week with vernier calipers, and tumor volume was calculated by the formula TV (mm^3)=0.5×a×b^2, with a and b representing the long and short diameters (in mm) of the tumors, respectively. When the average tumor volume of the control group was about 800 mm^3, the experiment was terminated. The tumor tissues were isolated and weighed to calculate the tumor weight proliferation rate with T/Cweight %=TWT/TWC %, and TWT and TWC represent the tumor weight of the administered group and the vehicle control group, respectively.

T1 sequence (Q12809 whole entry): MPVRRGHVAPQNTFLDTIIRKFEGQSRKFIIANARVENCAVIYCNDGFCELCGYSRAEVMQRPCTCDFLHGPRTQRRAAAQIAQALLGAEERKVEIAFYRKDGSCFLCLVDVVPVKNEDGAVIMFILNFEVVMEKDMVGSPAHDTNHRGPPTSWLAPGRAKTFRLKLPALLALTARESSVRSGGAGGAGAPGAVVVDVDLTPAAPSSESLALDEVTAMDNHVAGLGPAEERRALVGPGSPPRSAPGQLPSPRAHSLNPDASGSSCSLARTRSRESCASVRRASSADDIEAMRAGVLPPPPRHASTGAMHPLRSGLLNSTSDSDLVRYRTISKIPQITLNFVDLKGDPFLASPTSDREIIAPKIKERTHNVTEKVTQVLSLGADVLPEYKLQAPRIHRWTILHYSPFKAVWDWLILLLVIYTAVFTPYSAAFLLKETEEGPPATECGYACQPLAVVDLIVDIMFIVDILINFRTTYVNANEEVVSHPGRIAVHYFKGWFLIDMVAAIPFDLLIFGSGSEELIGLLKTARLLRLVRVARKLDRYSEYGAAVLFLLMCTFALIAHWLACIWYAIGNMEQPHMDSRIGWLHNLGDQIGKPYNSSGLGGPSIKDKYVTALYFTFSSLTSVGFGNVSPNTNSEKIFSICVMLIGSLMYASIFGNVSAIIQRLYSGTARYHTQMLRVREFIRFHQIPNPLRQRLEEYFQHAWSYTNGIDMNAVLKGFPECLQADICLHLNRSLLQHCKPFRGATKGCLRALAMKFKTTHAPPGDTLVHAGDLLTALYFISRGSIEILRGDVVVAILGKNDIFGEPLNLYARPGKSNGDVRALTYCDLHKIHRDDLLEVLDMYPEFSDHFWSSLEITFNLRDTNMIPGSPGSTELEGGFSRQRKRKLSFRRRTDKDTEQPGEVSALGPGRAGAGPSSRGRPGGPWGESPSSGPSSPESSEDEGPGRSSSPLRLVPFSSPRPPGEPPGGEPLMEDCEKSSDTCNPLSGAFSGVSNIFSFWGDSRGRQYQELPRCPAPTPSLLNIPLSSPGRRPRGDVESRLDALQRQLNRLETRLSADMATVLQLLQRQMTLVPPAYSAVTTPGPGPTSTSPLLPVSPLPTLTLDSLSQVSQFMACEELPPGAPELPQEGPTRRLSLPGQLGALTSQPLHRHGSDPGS

| SMILES | IC50 (hERG potassium channel) [nM] | IC50 (SHP-2 enzyme) [nM] | IC50 (MV-4-11 cell; Homo sapiens, MV4-11, 96 h) [nM] | T/Cweight (tumor weight proliferation rate) [1] [%] | IC50 (MV-4-11 cell) [nM] |
| --- | --- | --- | --- | --- | --- |
| Nc1nc(N2CCC3(CC2)Cc2cc(F)ccc2C3N)nnc1C(=O)N1CCCn2nccc21 (stereo not drawn) [Compound 59] | > 30000 | 6 | 253 | – | – |
| Nc1ccc2c(n1)CCN2C(=O)c1ncc(N2CCC3(CC2)Cc2ccccc2C3N)nc1N (stereo not drawn) [Compound 60] | – | 4 | 46 | 44.62 | – |
| Nc1nc2c(s1)CN(C(=O)c1ncc(N3CCC4(CC3)Cc3ccccc3[C@H]4N)nc1N)CC2(F)F [Compound 63] | > 30000 | 3 | < 5 | 28.94 | – |
| [2H]C1([2H])CN(C(=O)c2ncc(N3CCC4(CC3)Cc3ccc(OC)cc3C4N)nc2N)Cc2sc(N)nc21 (stereo not drawn) [Compound 70] | > 30000 | – | 25 | 35.04 | – |
| COc1ccc2c(c1)C(N)C1(CCN(c3cnc(C(=O)N4CCc5nc(N)sc5C4)c(N)n3)CC1)C2 (stereo not drawn) [Compound 82] | > 30000 | 4 | 25 | – | – |
| Cc1nc(C(=O)N2CCc3nc(N)ccc32)c(N)nc1N1CCC2(CC1)Cc1ccc(F)cc1C2N (stereo not drawn) [Compound 107] | – | 9 | 119 | – | – |
| [2H]C1([2H])CN(C(=O)c2ncc(N3CCC4(CC3)Cc3ccccc3C4N)nc2N)Cc2sc(N)nc21 (stereo not drawn) [Compound 108] | > 30000 | 3 | 8 | – | – |
| Nc1nc2c(cc1F)N(C(=O)c1ncc(N3CCC4(CC3)Cc3ccccc3C4N)nc1N)CC2 (stereo not drawn) [Compound 109] | – | 3 | 58 | – | – |
| Nc1nc2c(s1)CN(C(=O)c1ncc(N3CCC4(CC3)Cc3ccc(C5CC5)cc3C4N)nc1N)CC2 (stereo not drawn) [Compound 110] | – | 9 | 21 | – | – |
| Cc1nc(N2CCC3(CC2)Cc2ccccc2C3N)c(CO)nc1C(=O)N1Cc2sc(N)nc2C(F)(F)C1 (stereo not drawn) [Compound 112] | – | 14 | 18 | – | – |
| Cc1ccc2c(c1)C(N)C1(CCN(c3ncc(C(=O)N4Cc5sc(N)nc5C(F)(F)C4)nc3CO)CC1)C2 (stereo not drawn) [Compound 113] | – | 6 | < 5 | – | – |
| Nc1nc2c(s1)CN(C(=O)c1nc(F)c(N3CCC4(CC3)Cc3ccccc3C4N)nc1N)CC2(F)F (stereo not drawn) [Compound 115] | – | 4 | 4 | – | – |
| Nc1nc2c(s1)CN(C(=O)c1ncc(N3CCC4(CC3)Cc3ccc(F)cc3C4N)nc1N)CC2(F)F (stereo not drawn) [Compound 116] | – | 5 | 6 | – | – |
| NC(=O)c1nc(C(=O)N2Cc3sc(N)nc3C(F)(F)C2)cnc1N1CCC2(CC1)Cc1ccccc1C2N (stereo not drawn) [Compound 117] | – | 11 | 39 | – | – |
| Nc1nc2c(s1)CN(C(=O)c1cnc(N3CCC4(CC3)Cc3ccc(F)cc3C4N)c(CO)n1)CC2(F)F (stereo not drawn) [Compound 118] | – | 6 | 5 | – | – |
| COc1ccc2c(c1)C(N)C1(CCN(c3ncc(C(=O)N4Cc5sc(N)nc5C(F)(F)C4)nc3CO)CC1)C2 (stereo not drawn) [Compound 119] | – | 7 | 5 | – | – |
| [2H]C1([2H])CN(C(=O)c2ncc(N3CCC4(CC3)Cc3ccc(OC)cc3C4N)nc2N)Cc2sc(N)nc21 (stereo not drawn) [Compound 122] | – | 8 | – | – | 25 |
| COc1ccc2c(c1)C(N)C1(CCN(c3cnc(C(=O)N4Cc5sc(N)nc5C(F)(F)C4)c(N)n3)CC1)C2 (stereo not drawn) [Compound 125] | > 30000 | 10 | – | – | – |
| Nc1nc2c(s1)CN(C(=O)c1cnc(N3CCC4(CC3)Cc3ccccc3C4N)c(CO)n1)CC2(F)F (stereo not drawn) [Compound 126] | > 30000 | 6 | – | – | – |
| Nc1nc2c(s1)CN(C(=O)c1ncc(N3CCC4(CC3)Cc3ccccc3C4N)nc1N)CC2(F)F (stereo not drawn) [Compound 127] | – | 7 | 13 | – | – |
| Nc1nc2c(s1)CN(C(=O)c1ncc(N3CCC4(CC3)Cc3cc(F)ccc3C4N)nc1N)CC2(F)F (stereo not drawn) [Compound 129] | – | 5 | – | – | 9 |
| N[C@@H]1c2ccccc2CC12CCN(c1cnc(C(=O)N3CCCc4ncccc43)cn1)CC2 [Compound D1, reference compound] | – | 37 | 860 | – | – |
